Experimental data as given in the supplement of paper PMC10307832.

Tests used:
Test in all cases: relative viability (nuclei count vs DMSO), 5 days (fraction); higher = more cells survive
RU-SKI 43 + Bortezomib = compound: CC[C@@H](C)CNCC(=O)N1CCC2=C([C@@H]1COC3=CC=CC(=C3)C)C=CS2 [RU-SKI 43] + CC(C)C[C@H](NC(=O)[C@H](Cc1ccccc1)NC(=O)c1cnccn1)B(O)O [Bortezomib] (partner 0.002 µM)
How it was run: (§1)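 Lung cancer cell lines, seeded in 1536-well plates, were treated the following day by pin tool with a single drug or with five library-drug doses (not always all listed) in √10 steps on top of a fixed anchor-drug dose. Cells were fixed and nuclei stained in one step after 5 days, and nuclei were counted. Relative viability is the nuclei count for treated wells divided by that for vehicle wells, reported as medians of duplicate plates.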

RU-SKI 43 + Pictilisib = compound: CC[C@@H](C)CNCC(=O)N1CCC2=C([C@@H]1COC3=CC=CC(=C3)C)C=CS2 [RU-SKI 43] + CS(=O)(=O)N1CCN(Cc2cc3nc(-c4cccc5[nH]ncc45)nc(N4CCOCC4)c3s2)CC1 [Pictilisib] (partner 1 µM)
How it was run: as §1

MK-8033 + Trametinib = compound: Cn1cc(-c2cnc3ccc4ccc(CS(=O)(=O)NCc5ccccn5)cc4c(=O)c3c2)cn1 [MK-8033] + CC(=O)Nc1cccc(-n2c(=O)n(C3CC3)c(=O)c3c(Nc4ccc(I)cc4F)n(C)c(=O)c(C)c32)c1 [Trametinib] (partner 0.02 µM)
How it was run: as §1

RU-SKI 43 + Luminespib = compound: CC[C@@H](C)CNCC(=O)N1CCC2=C([C@@H]1COC3=CC=CC(=C3)C)C=CS2 [RU-SKI 43] + CCNC(=O)c1noc(-c2cc(C(C)C)c(O)cc2O)c1-c1ccc(CN2CCOCC2)cc1 [Luminespib] (partner 0.01 µM)
How it was run: as §1

| Cell Line | relative viability (RU-SKI 43 + Bortezomib; first compound 0.1 µM) | relative viability (RU-SKI 43 + Bortezomib; first compound 0.3162 µM) | relative viability (RU-SKI 43 + Bortezomib; first compound 1 µM) | relative viability (RU-SKI 43 + Bortezomib; first compound 3.162 µM) | relative viability (RU-SKI 43 + Bortezomib; first compound 10 µM) | relative viability (RU-SKI 43 + Pictilisib; first compound 0.1 µM) | relative viability (RU-SKI 43 + Pictilisib; first compound 0.3162 µM) | relative viability (RU-SKI 43 + Pictilisib; first compound 1 µM) | relative viability (RU-SKI 43 + Pictilisib; first compound 3.162 µM) | relative viability (RU-SKI 43 + Pictilisib; first compound 10 µM) | relative viability (MK-8033 + Trametinib; first compound 0.02 µM) | relative viability (MK-8033 + Trametinib; first compound 0.06325 µM) | relative viability (MK-8033 + Trametinib; first compound 0.2 µM) | relative viability (MK-8033 + Trametinib; first compound 0.6325 µM) | relative viability (MK-8033 + Trametinib; first compound 2 µM) | relative viability (RU-SKI 43 + Luminespib; first compound 0.1 µM) | relative viability (RU-SKI 43 + Luminespib; first compound 0.3162 µM) | relative viability (RU-SKI 43 + Luminespib; first compound 1 µM) | relative viability (RU-SKI 43 + Luminespib; first compound 3.162 µM) | relative viability (RU-SKI 43 + Luminespib; first compound 10 µM) |
| --- | --- | --- | --- | --- | --- | --- | --- | --- | --- | --- | --- | --- | --- | --- | --- | --- | --- | --- | --- | --- |
| PC-14 | 0.793 | 1.19 | 0.942 | 0.848 | 0.66 | 0.644 | 0.716 | 0.756 | 0.646 | 0.462 | 0.723 | 0.604 | 0.649 | 0.774 | 0.654 | 0.146 | 0.143 | 0.126 | 0.157 | 0.159 |
| NCI-H3122 | 1.06 | 0.924 | 0.993 | 1.02 | 0.978 | 0.644 | 0.543 | 0.641 | 0.559 | 0.578 | 0.262 | 0.247 | 0.21 | 0.238 | 0.3 | 0.0907 | 0.0845 | 0.103 | 0.0966 | 0.0897 |
| SW 1573 | 1.13 | 1.42 | 1.16 | 0.947 | 0.901 | 0.519 | 0.544 | 0.581 | 0.648 | 0.455 | 0.471 | 0.504 | 0.573 | 0.582 | 0.568 | 0.223 | 0.203 | 0.246 | 0.154 | 0.308 |
| HCC-15 | 1.12 | 1.28 | 1.2 | 1.08 | 1.11 | 0.886 | 0.887 | 0.872 | 0.721 | 0.679 | 0.387 | 0.369 | 0.322 | 0.351 | 0.368 | 0.427 | 0.249 | 0.478 | 0.285 | 0.419 |
| NCI-H1666 | 0.704 | 0.84 | 0.702 | 0.719 | 0.534 | 0.407 | 0.481 | 0.377 | 0.331 | 0.2 | 0.846 | 0.777 | 0.862 | 0.787 | 0.855 | 0.941 | 1.03 | 1.03 | 0.942 | 0.833 |
| NCI-H460 | 1.23 | 1.8 | 1.53 | 1.25 | 1.03 | 0.335 | 0.35 | 0.45 | 0.263 | 0.238 | 0.116 | 0.0888 | 0.0918 | 0.155 | 0.0855 | 0.035 | 0.0298 | 0.0295 | 0.0325 | 0.0355 |
| NCI-H1792 | 0.961 | 1.29 | 1.31 | 1.03 | 0.941 | 0.284 | 0.351 | 0.277 | 0.281 | 0.304 | 0.536 | 0.33 | 0.352 | 0.437 | 0.36 | 0.462 | 0.568 | 0.447 | 0.492 | 0.456 |
| NCI-H2087 | 0.759 | 0.942 | 0.996 | 0.735 | 0.925 | 0.797 | 0.992 | 1.16 | 0.992 | 0.944 | 0.213 | 0.147 | 0.187 | 0.214 | 0.254 | 0.158 | 0.173 | 0.193 | 0.145 | 0.131 |
| EKVX | 1.09 | 1.24 | 1.2 | 0.958 | 0.585 | 0.395 | 0.422 | 0.392 | 0.482 | 0.386 | 0.334 | 0.297 | 0.295 | 0.367 | 0.344 | 0.939 | 0.809 | 0.758 | 0.932 | 0.833 |
| NCI-H1355 | 1.21 | 1.29 | 1.18 | 1.21 | 1.2 | 0.432 | 0.331 | 0.508 | 0.465 | 0.442 | 0.415 | 0.363 | 0.393 | 0.447 | 0.419 | 0.577 | 0.822 | 0.869 | 0.76 | 0.741 |
| NCI-H661 | 0.776 | 0.704 | 0.835 | 0.943 | 0.764 | 0.432 | 0.409 | 0.484 | 0.355 | 0.414 | 0.544 | 0.498 | 0.577 | 0.57 | 0.515 | 0.942 | 1.03 | 0.947 | 0.932 | 0.898 |
| PC-3 [JPC-3] | 0.848 | 0.747 | 0.82 | 0.881 | 0.827 | 0.768 | 0.69 | 0.805 | 0.816 | 0.683 | 0.599 |  | 0.68 | 0.708 | 0.666 | 0.738 | 0.633 | 0.795 | 0.615 | 0.537 |
| NCI-H2085 | 1.03 | 1.08 | 1.1 | 0.995 | 0.988 | 0.476 | 0.353 | 0.473 | 0.409 | 0.469 | 0.542 | 0.546 | 0.525 | 0.554 | 0.574 | 0.398 | 0.481 | 0.591 | 0.431 | 0.407 |
| NCI-H1650 | 0.204 | 0.208 | 0.222 | 0.209 | 0.192 | 0.561 | 0.579 | 0.616 | 0.739 | 0.382 | 0.568 | 0.637 | 0.53 | 0.625 | 0.54 | 0.185 | 0.191 | 0.226 | 0.205 | 0.206 |
